Drawing on ChEMBL document CHEMBL6096678, “Targeting QPCTL: An Emerging Therapeutic Opportunity” (J Med Chem, 2025), this text covers Ki, IC50 and Kd for six molecules.

The target in experiment [1] is T1, Glutaminyl-peptide cyclotransferase-like protein (Homo sapiens, UniProt Q9NXS2). Nature of the experiment: Binding affinity to QPTCL (unknown origin) assessed as inhibition constant.
Experiment [2] deals with Glutaminyl-peptide cyclotransferase (Homo sapiens, UniProt Q16769). Nature of the experiment: Binding affinity to QPCT (unknown origin) assessed as inhibition constant.
In experiment [3] the target is T1, Glutaminyl-peptide cyclotransferase-like protein. Nature of the experiment: Inhibition of QPCTL (unknown origin).
The target is the same in experiment [4]. Nature of the experiment: Binding affinity to QPCTL (unknown origin) extracted from Escherichia coli BL21 (DE3) assessed as inhibition constant.
For experiment [5] the target is unchanged. In words: Binding affinity to QPCTL (unknown origin) assessed as dissociation constant.

Bounds are passed on as bounds.

T1 sequence (Q9NXS2 whole entry): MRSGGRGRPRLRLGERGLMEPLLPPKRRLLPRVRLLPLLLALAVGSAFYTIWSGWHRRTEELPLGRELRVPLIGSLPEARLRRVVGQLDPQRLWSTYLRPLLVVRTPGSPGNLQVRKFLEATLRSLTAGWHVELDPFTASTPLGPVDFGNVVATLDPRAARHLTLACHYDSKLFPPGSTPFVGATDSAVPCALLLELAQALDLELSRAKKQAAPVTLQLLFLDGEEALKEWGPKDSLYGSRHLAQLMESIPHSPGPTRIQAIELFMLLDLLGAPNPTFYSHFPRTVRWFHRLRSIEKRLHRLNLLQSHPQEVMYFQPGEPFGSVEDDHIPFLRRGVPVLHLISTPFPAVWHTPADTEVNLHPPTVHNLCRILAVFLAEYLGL
Sequence of Glutaminyl-peptide cyclotransferase (Q16769 whole entry): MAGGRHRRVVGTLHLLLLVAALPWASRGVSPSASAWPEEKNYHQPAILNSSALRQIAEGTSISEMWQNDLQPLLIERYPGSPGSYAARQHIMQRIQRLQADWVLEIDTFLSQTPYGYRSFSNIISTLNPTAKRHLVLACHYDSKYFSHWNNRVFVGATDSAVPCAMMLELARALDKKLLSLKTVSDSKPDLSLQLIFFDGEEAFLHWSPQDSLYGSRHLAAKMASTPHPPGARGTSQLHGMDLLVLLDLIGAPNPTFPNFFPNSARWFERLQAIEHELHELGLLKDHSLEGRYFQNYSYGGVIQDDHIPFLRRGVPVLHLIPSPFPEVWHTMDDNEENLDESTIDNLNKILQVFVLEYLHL

By Ki is commonly meant the equilibrium dissociation constant of an inhibitor or competing ligand from its target. `CCCOc1ccc(C2c3c(nn(C)c3C)C(=O)N2c2ccc3[nH]cnc3c2)c(F)c1` (configuration not stated): the Ki in experiment [1] was less than 0.025 µM; in experiment [2], less than 0.1 µM. One may read the IC50 as the concentration at which inhibition is half-maximal. Regarding `Cc1ccc(-c2ccsc2)c(N2CCC(c3nnc(N)n3C)CC2)n1`, the IC50 in experiment [3] is less than 0.001 µM.

For the molecule `O=C1[C@H](O)[C@H](c2c(F)cc(-c3cnn(C(F)F)c3)cc2F)N1c1ccc2[nH]cnc2c1`, the Ki in experiment [1] is less than 0.002 µM. Regarding `Cn1ccnc1` [1-METHYLIMIDAZOLE], in experiment [4], the Ki was 79 µM. One may read the Kd as the equilibrium constant for the complex coming apart. Consider `O=c1cc(-c2ccc(O)c(O)c2)oc2cc(O)cc(O)c12` [LUTEOLIN], for which, in experiment [5], the Kd was determined as 9.4 µM. For the molecule `CCCOc1ccc([C@H]2CNC(=O)N2c2ccc3[nH]cnc3c2)cc1` [VAROGLUTAMSTAT], the Ki in experiment [1] came to 0.005 µM.
